Two molecules from patent US20020192223A1 (priority 1989, published 2002) can be followed below.

A short description of series [1]: Solubility of the hydrazone during conjugation. In kind it is physicochemical. The settings on record: PBS. As for the experimental part:
3. The solution is transferred back to a round bottom flask equipped with a magnetic stirrer and kept in ice. The solution continuously is blanketed by nitrogen. The volume of the solution is noted. […] A solution of maleimidocaproyl hydrazone of adriamycin in distilled water (5 mg/mL, 6.3×10^−3 M) is prepared (notes 7, 8). The amount (in mL) of this solution needed for the conjugation is determined by the formula: [formula]
10. Brief applications of a sonicator will facilitate dissolution in distilled water. The resulting solution is stable.

The subject of series [2] is L2987 lung tumor xenografts. The experiment in a line: BR96-DOX against established subcutaneous xenografts. In kind it is in vivo, athymic mice. As for the experimental part: Athymic rats were transplanted subcutaneously with human lung adenocarcinoma L2987, colon carcinoma RCA, or breast carcinoma MCF7 and permitted to grow. […]
(§1) Mice and rats were administered with BR96-DOX by three injections, each injection being about four days apart. Mice which were injected intraperitoneally (IP) were given 20 mg/kg of BR96-DOX. Mice which were injected intravenously were given 10 mg/kg of BR96. Intravenous (IV) injection involved less volume of BR96 because of the constraints of injection volume, namely, only 10 mg/kg was administrable by IV.
(§2) Controls One set of controls included untreated mice and mice that received (1) DOX (at doses optimized to produce maximal antitumor activity in each model); (2) unconjugated BR96; (3) mixtures of BR96 and DOX; and (4) DOX conjugated to either normal human IgG or the control MAb SN7. Doses of DOX and MAb are presented as mg/kg/[…].
(§3) Treatment with BR96-DOX consistently cured most mice bearing L2987 (FIG. 46A) or RCA (FIG. 46B) tumors. […] Complete tumor regression (CR) refers to a tumor that for a period of time is not palpable. Partial tumor regression (PR) means a decrease in tumor volume to ≦50% of the initial tumor volume.

Series [3] relates to RCA colon carcinoma xenografts. Described as above. In kind it is in vivo, athymic mice. As for the experimental part:
(§4) Athymic rats were transplanted subcutaneously with human lung adenocarcinoma L2987, colon carcinoma RCA, or breast carcinoma MCF7 and permitted to grow. Therapy (3 treatments 4 days apart) started 14 to 28 days after tumor transplantation when tumors were well established, i.e., when the tumors were 50 to 100 mm^3 in size.
as §1, §2, §3

The test system of series [4] is L2987 spheroids inoculated IV. Description: BR96-DOX against large disseminated tumors. In kind it is in vivo, athymic mice. The following applies: DOX 8 mg/kg. From the text: L2987 lung carcinoma cells were selected in vitro for the ability to grow as multicellular spheroids. When injected IV into athymic mice or rats, tumors developed at various sites, including lymph nodes, lung, spleen, liver, brain, subcutaneously, and ascites was formed in some animals.
Mice were inoculated IV with L2987 spheroids.
The burden of disseminated disease in these animals was so far advanced that 50% of control animals died during the first 6 days of the experiment. […] Surviving mice were sacrificed 200 days after cell inoculation and sections of lung, lymph nodes, spleen, colon, jejunum, kidney, liver, brain, and heart were examined by histology.

Series [5] relates to L2987 human lung carcinoma, subcutaneous. The experiment in a line: BR96-DOX against human lung tumors implanted in rats. Type of series: in vivo, athymic Rowett rats.
Description: Athymic mice and athymic Rowett rats (Harlan Sprague Dawley) were used in this study.
as §4
Another set included rats using the protocol used in control mice.

Series [6] relates to parental cell line. Description: In vitro 3[H]-thymidine incorporation IC50. In kind it is cell-based. In general terms: Uptake of a labelled nucleoside into DNA is a usual measure of proliferation.
Series [7] has as its system cells obtained from tumors that grew back after BR96-DOX induced regression. The experiment in a line: In vitro 3[H]-thymidine incorporation IC50. In kind it is cell-based. The following applies: treatment (regrown tumor cells).
Series [8] can be described thus: Maximum tolerated dose, 3 injections 4 days apart. The settings on record: equivalent DOX dose. In kind it is in vivo, mice. On the procedure:
The maximum tolerated dose (MTD) (equivalent DOX dose) of the BR96-DOX conjugate (administered as 3 injections 4 days apart) was 20 mg/kg administered intraperitoneally (IP). When administered intravenously (IV) the MTD was ≧10 mg/kg. This was the maximum dose that could be administered IV because of the constraints of injection volume.
The MTD of unconjugated DOX (8 mg/kg IV and 4 mg/kg IP) was lower than that of the BR96-DOX conjugate. Unconjugated DOX administered IV at the MTD produced a delay in tumor growth but no tumor regressions and if the dose was reduced to 50% of the MTD, DOX had no effect.

Series [9] has as its system L2987 human lung tumor xenografts. Description: Test V in vivo activity of relaxed BR64 and L6 conjugates. Also noted: species or system BALB/c nu/nu mice. The settings on record: optimized doses of adriamycin. As for the experimental part: The in vivo antitumor activity of immunoconjugates of adriamycin and relaxed BR64 or relaxed L6 was evaluated.
Congenitally athymic female mice of BALB/c background (BALB/C nu/nu; Harlan Sprague-Dawley, Indianapolis, Ind.) were used. Mice were housed in Thoren caging units on sterile bedding with controlled temperature and humidity. Animals received sterile food and water ad libitum.
The L2987 human tumor line was established as tumor xenograft models in athymic mice. The tumor line was maintained by serial passage in vivo. Tumors were measured in 2 perpendicular directions at weekly or biweekly intervals using calipers. Tumor volume was calculated according to the equation: [formula]
In general, there were 8-10 mice per control or treatment group. Data are presented as median tumor size for control or treated groups. Antitumor activity is expressed in terms of gross log cell kill (“LCK”) where: [formula] […]
For animals bearing the L2987 human lung tumor, therapy was typically initiated when the median tumor size was 75 mm^3(12-14 days after tumor implant). The average TVDT was 4.8±0.9 days and antitumor activity was assessed at a tumor size of 500 mm^3. […]
Materials under investigation were administered by the ip or iv route. […] Compounds were administered on a mg/kg basis calculated for each animal, and doses are presented as mg/kg of equivalent adriamycin/injection. […]

Series [10] has the same test system. The experiment in a line: Test VI in vivo activity of ChiBR96-ADM conjugates. Also on record: species or system athymic mice. From the text: (§5) In general, there were 8-10 mice per control or treatment group. Data are presented as median tumor size for control or treated groups. Antitumor activity is expressed in terms of gross log cell kill (“LCK”) where: [formula]
(§6) T−C is defined as the median time (days) for treated tumors to reach target size minus the median time for control tumors to reach target size and TVDT is the time (days) for control tumors to double in volume (250-500 mm^3). Partial tumor regression (“PR”) refers to a decrease in tumor volume to ≦50% of the initial tumor volume; complete tumor regression (“CR”) refers to a tumor which for a period of time is not palpable; and cure is defined as an established tumor which is not palpable for a period of time ≧10 TVDTs.
(§7) Materials under investigation were administered by the ip or iv route. Adriamycin was diluted in normal saline; antibody and antibody/adriamycin conjugates were diluted in phosphate buffered saline. Compounds were administered on a mg/kg basis calculated for each animal, and doses are presented as mg/kg of equivalent adriamycin/injection. Immunoconjugates were administered on a q4dx3 schedule.
(§8) The antitumor activity of ChiBR96-ADM conjugates was evaluated against established human lung (“L2987”), breast (“MCF7,” obtainable from the ATCC under the accession number ATCC HTB 22; see also I. Hellström, et al., Cancer Research 50:2183 (1990)), and colon (“RCA” from M. Brattain, Baylor University; see also I. Hellström, et al., Cancer Research 50:2183 (1990)) tumors.
(§9) Animals were maintained and tumor xenograft models were established for the MCF7 and RCA and the L2987 human tumor lines as described for the L2987 in Test V. Materials were administered as described in Test V.
For animals bearing the L2987 human lung tumor, therapy typically was initiated when the median tumor size was 75 mm^3 (12-14 days after tumor implant). The average TVDT was 4.8±0.9 days and antitumor activity was assessed at a tumor size of 500 mm^3. In several experiments therapy was initiated when L2987 tumors were 225 mm^3 in size.

The subject of series [11] is MCF7 human breast tumor xenografts. Description: Test VI in vivo activity of ChiBR96-ADM conjugates. Also noted: species or system athymic mice. The following applies: ADM 6 mg/kg, iv.
Description: as §5, §6, §7, §8, §9
The MCF7 tumor is an estrogen-dependent human breast tumor line. Athymic mice were implanted with 0.65 mg (65 day release rate) estradiol pellets (Innovative Research of America, Toledo, Ohio) on the day of tumor implant. Therapy was initiated when the median tumor size was 100 mm^3 (typically 13 days after tumor implant).

Series [12] deals with RCA human colon tumor xenografts. Description: Test VI in vivo activity of ChiBR96-ADM conjugates. Also on record: species or system athymic mice.
Description: as §5, §6, §7, §8, §9
For animals bearing the RCA colon tumor, therapy was initiated 15 days after tumor implant when the median tumor size was 75 mm^3. The average TVDT for RCA tumor xenografts was 9.5±1.5 days and antitumor activity was assessed at 400 mm^3.

As usually defined, the IC50 is the concentration that gives 50% inhibition.

`COc1cccc2c1C(=O)c1c(O)c3c(c(O)c1C2=O)C[C@@](O)(/C(CO)=N/NC(=O)CCCCCN1C(=O)C=CC1=O)C[C@@H]3O[C@H]1C[C@H](N)[C@H](O)[C@H](C)O1` [hydrazone, Maleimidocaproylhydrazone of Adriamycin]: the solubility entry in series [1] is reported as “not very soluble in PBS”.

On to `COc1cccc2c1C(=O)c1c(O)c3c(c(O)c1C2=O)C[C@@](O)(C(=O)CO)C[C@@H]3O[C@H]1C[C@H](N)[C@H](O)[C@H](C)O1` [Adriamycin, adriamycin], for which the “tumor regressions: Complete” value in series [2] (L2987, q4dx3, DOX 8.0, no MAb) came out at 0%; in series [3] (RCA, q4dx3, DOX 8.0, no MAb), 0%; in series [3] (mouse, in vivo) it was 0%. Further, the “tumor regressions: Cures” value in series [2] (L2987, q4dx3, DOX 8.0, no MAb) was found to be 0%; in series [3] (RCA, q4dx3, DOX 8.0, no MAb) it was 0%; in series [3] (mouse, in vivo), 0%. Also, the “tumor regressions: Partial” value in series [2] (L2987, q4dx3, DOX 8.0, no MAb) is 0.8 ± 0.8%; in [3] (RCA, q4dx3, DOX 8.0, no MAb), 0%; in series [3] (mouse, in vivo), 0%. Moreover, the antitumor activity entry in series [2] (L2987 tumors 250 to 800 mm^3, optimal dose of DOX) is “antitumor activity was not observed”. The “activity against established RCA tumors (growth delay or regressions)” value in series [3] (DOX alone) is “not active”. Also, in series [4], the “day by which 100% of the mice were dead” value worked out at 140 days. The “MTD of free DOX” value in series [5] (3 injections 4 days apart) was 4 mg/kg. For the same molecule, the cures in series [5] (rats, 4 mg/kg, 3 injections 4 days apart (MTD of free DOX)) is 25%. Further, the results for the IC50 in series [6] and in [7] were 300 ± 200 nM and 400 ± 100 nM, respectively. Also, the “maximum tolerated dose (MTD)” value in series [8] (intraperitoneally (IP)) came to 4 mg/kg; in series [8] (intravenously (IV)) it was 8 mg/kg. Moreover, the LCK in series [9] is listed as 1.1 LCK; in [10] (ADM 8 mg/kg, iv, q4dx3 (Table 16)), 1.5; in [10] (ADM 8 mg/kg, no antibody, iv, q4dx3 (55 mice)), 1-1.8; in [10] (FIG. 57, optimized adriamycin (8 mg/kg)), 1.0 LCK; in [10] (FIG. 58, optimized adriamycin), 1.6 LCK; in series [11], 1.4. The LCK worked out at 0 in [12] (10/405 mg/kg, ip) and 0.4 in series [12] (ADM 8/0 mg/kg, iv). In addition, the CR in series [10] (ADM 8 mg/kg, iv (Table 16)) was found to be 0%; in series [10] (ADM 8 mg/kg, no antibody, iv), 0%; in series [11], 0%; in [12] (10/405 mg/kg, ip), 0%; in series [12] (ADM 8/0 mg/kg, iv) it was 0%. Besides, the Cure in series [10] (ADM 8 mg/kg, iv (Table 16)) is recorded as 0%; in series [10] (ADM 8 mg/kg, no antibody, iv), 0%; in series [11], 0%; in [12] (10/405 mg/kg, ip), 0%; in series [12] (ADM 8/0 mg/kg, iv) it was 0%. For the same molecule, the PR in series [10] (ADM 8 mg/kg, iv (Table 16)) was 0%; in series [10] (ADM 8 mg/kg, no antibody, iv) it was 3.6%; in [11] it was 0%; in [12] (10/405 mg/kg, ip), 0%; in [12] (ADM 8/0 mg/kg, iv), 0%.
